# Experiments:
# Echinochloa crus-galli [1] = assay: Herbicidal effect test in submerged condition by treatment before weed-generation (1); assay type: in vivo; details: 0.64 g/a, water surface treated on day of sowing, 3 weeks after treatment
# Outline: (§1)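 Alluvial soil flooded to 4 cm water depth; Echinochloa crus-galli, Scirpus juncoides and Monochoria vaginalis seeds sown, rice transplanted at 2.5-leaf stage. Wettable powder diluted in water applied to water surface on sowing day; greenhouse 25–30° C. Effect scored 0–5 by herbicidal rate after 3 weeks.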
# Scirpus juncoides [2] = assay: as above; assay type: in vivo; details: 0.64 g/a, water surface treated on day of sowing, 3 weeks after treatment
# Outline: as §1
# Monochoria vaginalis [3] = assay: as above; assay type: in vivo; details: 0.64 g/a, water surface treated on day of sowing, 3 weeks after treatment
# Outline: as §1
# Amaranthus retroflexus [4] = assay: Herbicidal effect test by soil treatment; assay type: in vivo; details: 1.6 g/a, 3 weeks after treatment
# Outline: (§2)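 Seeds were sown in sterilized diluvial soil under about 1.5 cm cover, then the soil surface was sprayed uniformly with a water-diluted wettable powder at a predetermined formulation amount. Herbicidal effect was scored per species 3 weeks after treatment.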
# Ambrosia elatior [5] = assay: Herbicidal effect test by soil treatment; assay type: in vivo; details: 1.6 g/a, 3 weeks after treatment
# Outline: as §2
# Chenopodium album [6] = assay: Herbicidal effect test by soil treatment; assay type: in vivo; details: 1.6 g/a, 3 weeks after treatment
# Outline: as §2
# Setaria viridis [7] = assay: Herbicidal effect test by soil treatment; assay type: in vivo; details: 1.6 g/a, 3 weeks after treatment
# Outline: as §2
# corn (Zea mays) [8] = assay: Herbicidal effect test by soil treatment; assay type: in vivo; details: 1.6 g/a, 3 weeks after treatment
# Outline: as §2
# Echinochloa crus-galli [9] = assay: Herbicidal effect test by soil treatment; assay type: in vivo; details: 1.6 g/a, 3 weeks after treatment
# Outline: as §2
# Polygonum blumei [10] = assay: Herbicidal effect test by soil treatment; assay type: in vivo; details: 1.6 g/a, 3 weeks after treatment
# Outline: as §2
# Digitaria adscendes [11] = assay: Herbicidal effect test by soil treatment; assay type: in vivo; details: 1.6 g/a, 3 weeks after treatment
# Outline: as §2
# Avena fatua [12] = assay: Herbicidal effect test by soil treatment; assay type: in vivo; details: 1.6 g/a, 3 weeks after treatment
# Outline: as §2
# Beta vulgaris (beet) [13] = assay: Herbicidal effect test by soil treatment; assay type: in vivo; details: 1.6 g/a, 3 weeks after treatment
# Outline: as §2
# Abutilon avicennae [14] = assay: Herbicidal effect test by soil treatment; assay type: in vivo; details: 1.6 g/a, 3 weeks after treatment
# Outline: as §2
# Black-grass [15] = assay: Herbicidal effect test by soil treatment; assay type: in vivo; details: 1.6 g/a, 3 weeks after treatment
# Outline: as §2
# [16] = test system: Triticum aestivum (wheat); assay: Herbicidal effect test by soil treatment; assay type: in vivo; details: 1.6 g/a, 3 weeks after treatment
# Outline: as §2
# Stellaria media [17] = assay: Herbicidal effect test by soil treatment; assay type: in vivo; details: 1.6 g/a, 3 weeks after treatment
# Outline: as §2
# soybean (Glycine max) [18] = assay: Herbicidal effect test by soil treatment; assay type: in vivo; details: 1.6 g/a, 3 weeks after treatment
# Outline: as §2
# direct sown rice [19] = assay: Herbicidal effect test by soil treatment; assay type: in vivo, Oryza sativa; details: 1.6 g/a, 3 weeks after treatment
# Outline: as §2
# Echinochloa crus-galli [20] = assay: Herbicidal effect test in submerged condition by treatment during weed-growth stage (1); assay type: in vivo; details: 0.64 g/a, treated at 1st to 2nd leaf stage, 3 weeks after treatment
# Outline: (§3)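 Paddy-soil pots flooded to 4 cm water depth were sown and grown in a greenhouse at 25 to 30° C until weeds reached 1st to 2nd leaf stage. A wettable powder diluted in water to a predetermined formulation amount was applied to the water surface. Herbicidal effect was scored 3 weeks after treatment against set criteria.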
# Scirpus juncoides [21] = assay: as above; assay type: in vivo; details: 0.64 g/a, treated at 1st to 2nd leaf stage, 3 weeks after treatment
# Outline: as §3
# Monochoria vaginalis [22] = assay: as above; assay type: in vivo; details: 0.64 g/a, treated at 1st to 2nd leaf stage, 3 weeks after treatment
# Outline: as §3
# direct sown rice [23] = assay: Herbicidal effect test by foliage treatment; assay type: in vivo, Oryza sativa; details: 1.6 g/a; foliage treatment after growth of 14 days; 3 weeks after treatment
# Outline: (§4)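 Greenhouse-grown plants (25–30 °C) sprayed on foliage 14 days after sowing with water-diluted wettable powder at set formulation rates. Herbicidal effect scored visually 3 weeks after treatment on a graded scale.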
# Amaranthus retroflexus [24] = assay: Herbicidal effect test by foliage treatment; assay type: in vivo; details: 1.6 g/a; foliage treatment after growth of 14 days; 3 weeks after treatment
# Outline: as §4
# Ambrosia elatior [25] = assay: Herbicidal effect test by foliage treatment; assay type: in vivo; details: 1.6 g/a; foliage treatment after growth of 14 days; 3 weeks after treatment
# Outline: as §4
# Chenopodium album [26] = assay: Herbicidal effect test by foliage treatment; assay type: in vivo; details: 1.6 g/a; foliage treatment after growth of 14 days; 3 weeks after treatment
# Outline: as §4
# Setaria viridis [27] = assay: Herbicidal effect test by foliage treatment; assay type: in vivo; details: 1.6 g/a; foliage treatment after growth of 14 days; 3 weeks after treatment
# Outline: as §4
# corn (Zea mays) [28] = assay: Herbicidal effect test by foliage treatment; assay type: in vivo; details: 1.6 g/a; foliage treatment after growth of 14 days; 3 weeks after treatment
# Outline: as §4
# Echinochloa crus-galli [29] = assay: Herbicidal effect test by foliage treatment; assay type: in vivo; details: 1.6 g/a; foliage treatment after growth of 14 days; 3 weeks after treatment
# Outline: as §4
# Polygonum blumei [30] = assay: Herbicidal effect test by foliage treatment; assay type: in vivo; details: 1.6 g/a; foliage treatment after growth of 14 days; 3 weeks after treatment
# Outline: as §4
# Digitaria adscendes [31] = assay: Herbicidal effect test by foliage treatment; assay type: in vivo; details: 1.6 g/a; foliage treatment after growth of 14 days; 3 weeks after treatment
# Outline: as §4
# Avena fatua [32] = assay: Herbicidal effect test by foliage treatment; assay type: in vivo; details: 1.6 g/a; foliage treatment after growth of 14 days; 3 weeks after treatment
# Outline: as §4
# Beta vulgaris (beet) [33] = assay: Herbicidal effect test by foliage treatment; assay type: in vivo; details: 1.6 g/a; foliage treatment after growth of 14 days; 3 weeks after treatment
# Outline: as §4
# Abutilon avicennae [34] = assay: Herbicidal effect test by foliage treatment; assay type: in vivo; details: 1.6 g/a; foliage treatment after growth of 14 days; 3 weeks after treatment
# Outline: as §4
# Black-grass [35] = assay: Herbicidal effect test by foliage treatment; assay type: in vivo; details: 1.6 g/a; foliage treatment after growth of 14 days; 3 weeks after treatment
# Outline: as §4
# [36] = test system: Triticum aestivum (wheat); assay: Herbicidal effect test by foliage treatment; assay type: in vivo; details: 1.6 g/a; foliage treatment after growth of 14 days; 3 weeks after treatment
# Outline: as §4
# Stellaria media [37] = assay: Herbicidal effect test by foliage treatment; assay type: in vivo; details: 1.6 g/a; foliage treatment after growth of 14 days; 3 weeks after treatment
# Outline: as §4
# soybean (Glycine max) [38] = assay: Herbicidal effect test by foliage treatment; assay type: in vivo; details: 1.6 g/a; foliage treatment after growth of 14 days; 3 weeks after treatment
# Outline: as §4
smiles,measurement,setting,value
COc1cc(OC)nc(NC(=O)NS(=O)(=O)c2c(C3=NOCC(CI)O3)c(C)nn2C)n1 (centres unmarked) [Compound 6],"herbicidal effect, A: Echinochloa crus-galli",Echinochloa crus-galli [1],5 (Herbicidal rate 90% or more (almost complete death))
same,"herbicidal effect, B: Scirpus juncoides",Scirpus juncoides [2],5 (Herbicidal rate 90% or more (almost complete death))
same,"herbicidal effect, C: Monochoria vaginalis",Monochoria vaginalis [3],5 (Herbicidal rate 90% or more (almost complete death))
same,"herbicidal effect, J: Amaranthus retroflexus",Amaranthus retroflexus [4],4 (Herbicidal rate 70% or more and less than 90%)
same,"herbicidal effect, I: Ambrosia elatior",Ambrosia elatior [5],5 (Herbicidal rate 90% or more (almost complete death))
same,"herbicidal effect, K: Chenopodium album",Chenopodium album [6],5 (Herbicidal rate 90% or more (almost complete death))
same,"herbicidal effect, E: Setaria viridis",Setaria viridis [7],3 (Herbicidal rate 40% or more and less than 70%)
same,"herbicidal effect, b: corn (Zea mays)",corn (Zea mays) [8],4 (Herbicidal rate 70% or more and less than 90%)
same,"herbicidal effect, A: Echinochloa crus-galli",Echinochloa crus-galli [9],4 (Herbicidal rate 70% or more and less than 90%)
same,"herbicidal effect, L: Polygonum blumei",Polygonum blumei [10],5 (Herbicidal rate 90% or more (almost complete death))
same,"herbicidal effect, D: Digitaria adscendes",Digitaria adscendes [11],4 (Herbicidal rate 70% or more and less than 90%)
same,"herbicidal effect, F: Avena fatua",Avena fatua [12],0 (Herbicidal rate 5% or less (little effect))
same,"herbicidal effect, f: Beta vulgaris (beet)",Beta vulgaris (beet) [13],4 (Herbicidal rate 70% or more and less than 90%)
same,"herbicidal effect, H: Abutilon avicennae",Abutilon avicennae [14],3 (Herbicidal rate 40% or more and less than 70%)
same,"herbicidal effect, G: Black-grass",Black-grass [15],5 (Herbicidal rate 90% or more (almost complete death))
same,"herbicidal effect, e: Triticum aestivum (wheat)",[16],4 (Herbicidal rate 70% or more and less than 90%)
same,"herbicidal effect, M: Stellaria media",Stellaria media [17],5 (Herbicidal rate 90% or more (almost complete death))
same,"herbicidal effect, c: soybean (Glycine max)",soybean (Glycine max) [18],3 (Herbicidal rate 40% or more and less than 70%)
same,"herbicidal effect, d: direct sown rice",direct sown rice [19],4 (Herbicidal rate 70% or more and less than 90%)
same,"herbicidal effect, A: Echinochloa crus-galli",Echinochloa crus-galli [20],5 (Herbicidal rate 90% or more (almost complete death))
same,"herbicidal effect, B: Scirpus juncoides",Scirpus juncoides [21],5 (Herbicidal rate 90% or more (almost complete death))
same,"herbicidal effect, C: Monochoria vaginalis",Monochoria vaginalis [22],5 (Herbicidal rate 90% or more (almost complete death))
same,"herbicidal effect, d: direct sown rice",direct sown rice [23],4 (Herbicidal rate 70% or more and less than 90%)
same,"herbicidal effect, J: Amaranthus retroflexus",Amaranthus retroflexus [24],4 (Herbicidal rate 70% or more and less than 90%)
same,"herbicidal effect, I: Ambrosia elatior",Ambrosia elatior [25],5 (Herbicidal rate 90% or more (almost complete death))
same,"herbicidal effect, K: Chenopodium album",Chenopodium album [26],5 (Herbicidal rate 90% or more (almost complete death))
same,"herbicidal effect, E: Setaria viridis",Setaria viridis [27],5 (Herbicidal rate 90% or more (almost complete death))
same,"herbicidal effect, b: corn (Zea mays)",corn (Zea mays) [28],4 (Herbicidal rate 70% or more and less than 90%)
same,"herbicidal effect, A: Echinochloa crus-galli",Echinochloa crus-galli [29],5 (Herbicidal rate 90% or more (almost complete death))
same,"herbicidal effect, L: Polygonum blumei",Polygonum blumei [30],5 (Herbicidal rate 90% or more (almost complete death))
same,"herbicidal effect, D: Digitaria adscendes",Digitaria adscendes [31],5 (Herbicidal rate 90% or more (almost complete death))
same,"herbicidal effect, F: Avena fatua",Avena fatua [32],3 (Herbicidal rate 40% or more and less than 70%)
same,"herbicidal effect, f: Beta vulgaris (beet)",Beta vulgaris (beet) [33],5 (Herbicidal rate 90% or more (almost complete death))
same,"herbicidal effect, H: Abutilon avicennae",Abutilon avicennae [34],5 (Herbicidal rate 90% or more (almost complete death))
same,"herbicidal effect, G: Black-grass",Black-grass [35],5 (Herbicidal rate 90% or more (almost complete death))
same,"herbicidal effect, e: Triticum aestivum (wheat)",[36],4 (Herbicidal rate 70% or more and less than 90%)
same,"herbicidal effect, M: Stellaria media",Stellaria media [37],5 (Herbicidal rate 90% or more (almost complete death))
same,"herbicidal effect, c: soybean (Glycine max)",soybean (Glycine max) [38],4 (Herbicidal rate 70% or more and less than 90%)

# Reference: US7709636B2, “Pyrazole sulfonylurea compound and herbicide” (Nissan Chemical Industries, Ltd., priority 2004, dated 2010)
